Assays:
[1] = biological target: EGFR L858R (Homo sapiens, UniProt P00533, L858R); assay: In vitro kinase specificity profiling; assay type: biochemical
[2] = biological target: KDR(VEGFR2) (Homo sapiens, UniProt P35968); assay: In vitro kinase specificity profiling; assay type: biochemical
[3] = biological target: CMET (Homo sapiens, UniProt P08581); assay: In vitro kinase specificity profiling; assay type: biochemical
[4] = biological target: CDK6 (Homo sapiens, UniProt Q00534); assay: In vitro kinase specificity profiling; assay type: biochemical
[5] = biological target: PDGFRa (Homo sapiens, UniProt P16234); assay: In vitro kinase specificity profiling; assay type: biochemical
Sequence of PDGFRa (P16234 24-1089, species assumed): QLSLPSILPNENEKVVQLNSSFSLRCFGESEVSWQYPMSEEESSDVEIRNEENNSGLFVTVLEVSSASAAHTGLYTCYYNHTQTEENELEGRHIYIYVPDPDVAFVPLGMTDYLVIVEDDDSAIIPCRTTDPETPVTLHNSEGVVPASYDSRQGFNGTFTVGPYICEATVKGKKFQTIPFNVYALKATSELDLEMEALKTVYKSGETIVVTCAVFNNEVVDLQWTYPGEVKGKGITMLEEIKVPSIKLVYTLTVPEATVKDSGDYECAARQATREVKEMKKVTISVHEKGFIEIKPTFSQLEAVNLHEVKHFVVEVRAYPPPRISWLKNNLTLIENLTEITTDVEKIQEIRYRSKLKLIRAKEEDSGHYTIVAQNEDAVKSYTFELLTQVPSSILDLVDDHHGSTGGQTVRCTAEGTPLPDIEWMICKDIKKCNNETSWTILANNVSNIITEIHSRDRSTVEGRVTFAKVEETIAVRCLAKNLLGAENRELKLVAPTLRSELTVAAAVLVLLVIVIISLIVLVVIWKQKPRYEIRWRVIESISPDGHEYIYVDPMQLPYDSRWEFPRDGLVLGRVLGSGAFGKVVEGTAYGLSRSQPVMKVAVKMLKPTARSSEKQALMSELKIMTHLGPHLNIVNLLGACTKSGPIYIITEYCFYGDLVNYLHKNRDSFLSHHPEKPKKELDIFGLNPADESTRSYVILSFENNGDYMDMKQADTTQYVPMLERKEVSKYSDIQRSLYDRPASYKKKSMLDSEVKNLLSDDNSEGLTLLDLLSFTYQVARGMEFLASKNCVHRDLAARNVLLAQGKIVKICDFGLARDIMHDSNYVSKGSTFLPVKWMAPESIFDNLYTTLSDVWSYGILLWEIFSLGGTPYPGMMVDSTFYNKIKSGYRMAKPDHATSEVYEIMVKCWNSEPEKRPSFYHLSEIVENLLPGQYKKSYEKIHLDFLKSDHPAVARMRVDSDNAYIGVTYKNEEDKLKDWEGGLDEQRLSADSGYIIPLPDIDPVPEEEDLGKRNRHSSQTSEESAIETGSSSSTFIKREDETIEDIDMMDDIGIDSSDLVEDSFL

[6] = biological target: IGF1R (Homo sapiens, UniProt P08069); assay: In vitro kinase specificity profiling; assay type: biochemical
Sequence of IGF1R (P08069 31-1367, species assumed): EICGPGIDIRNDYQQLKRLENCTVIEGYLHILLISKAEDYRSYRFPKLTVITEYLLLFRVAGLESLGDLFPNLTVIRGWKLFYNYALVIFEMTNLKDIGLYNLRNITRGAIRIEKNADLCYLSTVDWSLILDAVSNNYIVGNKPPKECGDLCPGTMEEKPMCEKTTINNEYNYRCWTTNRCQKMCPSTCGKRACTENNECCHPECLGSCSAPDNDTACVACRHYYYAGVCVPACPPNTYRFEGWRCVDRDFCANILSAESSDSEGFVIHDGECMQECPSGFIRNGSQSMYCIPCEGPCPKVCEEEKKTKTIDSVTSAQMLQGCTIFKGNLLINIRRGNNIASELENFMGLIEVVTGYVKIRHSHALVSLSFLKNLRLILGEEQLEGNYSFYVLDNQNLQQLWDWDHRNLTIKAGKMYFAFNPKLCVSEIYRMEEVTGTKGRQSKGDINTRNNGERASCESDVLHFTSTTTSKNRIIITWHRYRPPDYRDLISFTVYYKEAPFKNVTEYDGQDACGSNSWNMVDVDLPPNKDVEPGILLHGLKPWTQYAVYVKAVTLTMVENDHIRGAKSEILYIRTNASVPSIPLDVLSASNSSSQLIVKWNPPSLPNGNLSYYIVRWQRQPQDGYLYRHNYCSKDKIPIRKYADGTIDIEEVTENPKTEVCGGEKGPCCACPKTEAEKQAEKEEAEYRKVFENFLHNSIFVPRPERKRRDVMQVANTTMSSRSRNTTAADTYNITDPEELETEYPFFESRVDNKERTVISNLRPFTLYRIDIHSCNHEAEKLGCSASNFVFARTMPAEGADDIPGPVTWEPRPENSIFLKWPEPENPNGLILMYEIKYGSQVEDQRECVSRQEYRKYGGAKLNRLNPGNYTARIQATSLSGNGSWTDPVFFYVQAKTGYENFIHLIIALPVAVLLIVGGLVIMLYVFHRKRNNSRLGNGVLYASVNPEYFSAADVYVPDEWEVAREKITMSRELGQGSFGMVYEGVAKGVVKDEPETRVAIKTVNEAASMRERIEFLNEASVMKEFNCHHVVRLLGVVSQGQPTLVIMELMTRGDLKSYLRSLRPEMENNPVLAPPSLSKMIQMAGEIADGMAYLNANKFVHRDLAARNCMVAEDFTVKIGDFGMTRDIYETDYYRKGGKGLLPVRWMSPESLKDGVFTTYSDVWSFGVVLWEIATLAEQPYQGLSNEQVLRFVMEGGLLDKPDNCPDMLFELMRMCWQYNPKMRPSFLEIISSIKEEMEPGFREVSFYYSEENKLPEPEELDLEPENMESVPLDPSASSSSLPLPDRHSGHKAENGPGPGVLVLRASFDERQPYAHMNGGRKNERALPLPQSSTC

[7] = biological target: HER2 (Homo sapiens, UniProt P04626); assay: In vitro kinase specificity profiling; assay type: biochemical
Sequence of HER2 (P04626 23-1255, species assumed): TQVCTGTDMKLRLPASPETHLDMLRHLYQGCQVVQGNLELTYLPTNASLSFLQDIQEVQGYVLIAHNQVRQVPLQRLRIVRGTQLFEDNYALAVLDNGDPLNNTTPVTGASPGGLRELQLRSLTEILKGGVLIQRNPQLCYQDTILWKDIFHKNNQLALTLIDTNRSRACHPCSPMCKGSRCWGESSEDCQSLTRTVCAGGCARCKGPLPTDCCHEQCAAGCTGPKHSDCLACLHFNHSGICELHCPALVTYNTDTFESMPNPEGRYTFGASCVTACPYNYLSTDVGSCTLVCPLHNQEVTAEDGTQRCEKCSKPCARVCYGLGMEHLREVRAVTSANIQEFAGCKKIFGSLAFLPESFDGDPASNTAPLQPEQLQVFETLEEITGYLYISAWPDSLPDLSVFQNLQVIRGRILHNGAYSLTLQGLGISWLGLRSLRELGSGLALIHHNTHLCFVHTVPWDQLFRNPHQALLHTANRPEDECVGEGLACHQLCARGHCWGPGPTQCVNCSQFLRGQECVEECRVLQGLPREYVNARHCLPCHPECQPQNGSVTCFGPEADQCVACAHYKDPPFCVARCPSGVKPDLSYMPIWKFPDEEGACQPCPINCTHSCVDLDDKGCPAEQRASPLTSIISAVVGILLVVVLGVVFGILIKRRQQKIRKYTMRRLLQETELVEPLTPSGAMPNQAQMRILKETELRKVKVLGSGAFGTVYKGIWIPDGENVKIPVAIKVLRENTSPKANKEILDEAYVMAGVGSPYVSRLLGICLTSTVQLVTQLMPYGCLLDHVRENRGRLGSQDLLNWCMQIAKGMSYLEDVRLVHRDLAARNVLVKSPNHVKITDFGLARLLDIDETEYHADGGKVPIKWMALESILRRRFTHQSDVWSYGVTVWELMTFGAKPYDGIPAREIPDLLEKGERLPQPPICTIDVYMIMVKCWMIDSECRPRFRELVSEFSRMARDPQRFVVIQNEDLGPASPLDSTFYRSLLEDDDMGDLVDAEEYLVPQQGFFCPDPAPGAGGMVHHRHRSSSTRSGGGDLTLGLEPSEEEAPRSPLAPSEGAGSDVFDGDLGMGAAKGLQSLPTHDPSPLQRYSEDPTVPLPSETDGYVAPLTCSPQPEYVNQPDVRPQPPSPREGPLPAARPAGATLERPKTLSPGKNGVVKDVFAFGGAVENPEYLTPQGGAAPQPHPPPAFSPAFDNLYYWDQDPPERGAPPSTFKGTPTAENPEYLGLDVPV

[8] = biological target: T790M/L858R EGFR (Homo sapiens, UniProt P00533, L858R/T790M); assay: In vitro kinase specificity profiling; assay type: biochemical
[9] = tested on: GSK3α; assay: Immunoblots of p-GSK3α in H1975 cells; assay type: cell-based, human; conditions: 10 μM, 24 h, compared to Gefitinib and AZD9291
Description: For western blot analysis, cells were collected and washed with PBS, then lysed in radioimmunoprecipitation assay (RIPA) buffer (1% Triton X-100, 100 mM Tris-HCl pH 8.8, 100 mM NaCl, 0.5 mM EDTA). After incubation on ice for 30 min, the lysates were centrifuged at 12,000 × g for 10 min at 4 °C. The supernatant was collected and the protein concentration was measured by bicinchoninic acid reaction. Protein samples were added with 2× loading buffer and heated at 100 °C for 10 min, separated with SDS-polyacrylamide gel electrophoresis (SDS-PAGE), transferred onto polyvinylidene difluoride membranes, and blocked with 5% non-fat milk in Phosphate Buffered Saline with 0.1% Tween-20 (PBST) for 1 h at room temperature. The membranes were probed with the corresponding primary antibodies at 4 °C overnight and horseradish peroxidase-conjugated secondary antibodies at room temperature for 1 h. Signals were detected using chemiluminescence reagents (#4AW001-500, 4A649 Biotech, Co.).
Flag-EV Flag-PD-L1 Flag-EV Flag-PD-L1
43 Flag-PD-L1-TM Flag-PD-L1-TM
GSK3 concenseus phosphorylation motif:S/TXXX S/T EGFR 180 […]
Supplementary Figure 4. […] Quantification for the mean area (MA) of PD-L1/GSK3α (n = 50) or PD-L1/GSK3β (n = 44-50) PLA speckles are indicated by scattergram. […]

Sequence of EGFR L858R (P00533 25-1210 L858R): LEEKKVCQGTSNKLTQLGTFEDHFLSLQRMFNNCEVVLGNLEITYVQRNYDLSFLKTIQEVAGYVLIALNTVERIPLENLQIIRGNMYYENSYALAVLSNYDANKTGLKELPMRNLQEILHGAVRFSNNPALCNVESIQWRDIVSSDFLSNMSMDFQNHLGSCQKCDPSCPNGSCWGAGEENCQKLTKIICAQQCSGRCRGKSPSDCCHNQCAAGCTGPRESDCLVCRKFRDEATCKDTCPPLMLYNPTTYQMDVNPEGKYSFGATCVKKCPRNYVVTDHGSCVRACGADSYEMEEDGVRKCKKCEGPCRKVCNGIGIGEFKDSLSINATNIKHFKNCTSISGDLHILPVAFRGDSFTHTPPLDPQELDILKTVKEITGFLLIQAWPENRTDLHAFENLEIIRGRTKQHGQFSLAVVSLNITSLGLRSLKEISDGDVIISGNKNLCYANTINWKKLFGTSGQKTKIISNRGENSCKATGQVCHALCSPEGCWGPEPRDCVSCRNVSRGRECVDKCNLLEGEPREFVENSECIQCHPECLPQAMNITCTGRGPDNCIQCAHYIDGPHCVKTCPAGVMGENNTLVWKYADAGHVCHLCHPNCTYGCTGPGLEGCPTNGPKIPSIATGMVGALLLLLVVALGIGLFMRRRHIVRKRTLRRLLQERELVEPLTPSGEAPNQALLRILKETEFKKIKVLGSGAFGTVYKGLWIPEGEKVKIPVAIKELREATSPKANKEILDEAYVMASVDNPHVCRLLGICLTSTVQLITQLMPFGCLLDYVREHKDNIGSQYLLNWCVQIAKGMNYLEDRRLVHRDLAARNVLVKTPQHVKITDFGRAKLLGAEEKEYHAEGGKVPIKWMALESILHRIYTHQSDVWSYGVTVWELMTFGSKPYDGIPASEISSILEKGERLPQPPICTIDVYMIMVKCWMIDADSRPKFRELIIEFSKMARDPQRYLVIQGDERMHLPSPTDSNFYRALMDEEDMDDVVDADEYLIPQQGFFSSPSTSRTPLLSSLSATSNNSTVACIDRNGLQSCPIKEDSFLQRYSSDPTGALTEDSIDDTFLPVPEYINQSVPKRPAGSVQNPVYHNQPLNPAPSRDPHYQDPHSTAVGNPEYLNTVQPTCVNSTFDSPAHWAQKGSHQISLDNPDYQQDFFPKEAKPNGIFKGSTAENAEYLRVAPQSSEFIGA

- IC50 [1]: 2.7 nM
- IC50 [2]: 5230 nM
- IC50 [3]: > 10000 nM
- IC50 [4]: > 10000 nM
- IC50 [5]: 3850 nM
- IC50 [6]: 127 nM
- IC50 [7]: 147 nM
- IC50 [8]: 1.75 nM
SMILES: C=CC(=O)Nc1cccc(Nc2nc(Nc3ccc(N4CCN(C)CC4)nc3OC)ncc2C(F)(F)F)c1 [ES-072]
- activation effect on GSK3α (loss of the inhibitory phosphorylation of GSK3α) [9]: higher activation effect

— article PMC8058344, “ARIH1 signaling promotes anti-tumor immunity by targeting PD-L1 for proteasomal degradation” (Nature Communications, 2021)
